Data: patent publication US4794114A, “Inhibition of interleukin-1 production by monocytes and/or macrophages” (SmithKline Beckman Corporation, priority 1987, dated 1988)
Read-outs that look alike come from different tables or passages of the source.

How the values were obtained:
[1] = system: IL-1 production by human monocytes; test: in vitro IL-1 production by LPS-stimulated human peripheral blood monocytes (EL-4 readout); assay type: cell-based; details: for inhibition at 1 µM: 10^-6 M
Experimental: The effects of antiinflammatory/antiarthritic drugs of different classes, including Compound 1 on the in vitro production of IL-1 by human monocytes was examined.
(§1) Bacterial lipopolysaccharide (LPS) was used to induce IL-1 production by human peripheral blood monocytes. IL-1 activity was measured by its ability to stimulate a Interleukin 2 (IL-2) producing cell line (EL-4) to secrete IL-2, in concert with A23187 ionophore, according to the method of Simon et al., J. Immunol. Methods, 84, 85, (1985). Human peripheral blood monocytes were isolated and purified from either fresh blood preparations from volunteer donors, or from blood Bank buffy coats, according to the procedure of Colotta et al., J. Immunol., 132, 936 (1984). 1×10^6 of such monocytes are plated in 24-well plates at a concentration of 2 million/ml per well. The cells were allowed to adhere for 2 hours, after which time non-adherent cells were removed by gentle washing. Test compounds were then added to the cells for 1 hour (hr) before the addition of lipopolysaccharide (10 ng/ml unless otherwise noted), and the cultures were incubated at 37° C. for an additional 24 hours. At the end of the incubation period, culture supernatants were removed and clarified of cells and all debris. Culture supernatants were immediately assayed for IL-1 biological activity as well as prostaglandin and/or leukotriene concentrations by radioimmunoassay.
^(a) All compounds, except chloroquine, were dissolved in absolute
ethanol at 10^-2 M, which was subsequently diluted further in tissue
assay system at doses tested. Furthermore, test samples were dialyzed
prior to testing in the IL1 assay.
In order to elucidate the mechanism by which Compound 1 mediates its anti-inflammatory activity, the ability of this compound and two closely related analog metabolites, (i.e., the analogs of Compound 1 wherein X is S(0)n and n is 1 or 2) to inhibit human IL-1 production in vitro was evaluated according to the method of Example 1. Briefly, 1×10^6 human peripheral blood monocytes were plated in 24-well plates and allowed to adhere for 1 hr at 37° C. The above compounds were added to a final concentration of 10^-5 M to 10^-8 M. The monocytes were stimulated to produce IL-1 with 1 ng/ml LPS after a 1 hr pretreatment of the cells with the respective compounds.
The inhibitory effect of additional compounds of Formula (I) on the in vitro production of IL-1 production of IL-1 by human monocytes was determined according to the procedure of Examples 1 and 2.

[2] = in vitro; assay type: cell-based, human; details: human, peripheral blood monocytes
Experimental: as §1
^(b) At doses at or above 10^-5 M, this compound exerted some

[3] = system: PGE2; test: in vitro prostaglandin (PGE2) synthesis by LPS-stimulated human monocytes, RIA; assay type: cell-based
Experimental: as §1
^(c) PGE2 was assayed using an RIA kit.

[4] = system: endotoxin shock in C57B1/6 mice; assay type: in vivo, mouse; details: mouse, in vivo
Experimental: (§2) Mice are very resistant to the lethal effects of bacterial lipopolysaccharides (LPS). D-Galactosamine (D-GALN) induces a high degree of sensitization to the lethal effects of LPS in mice and other experimental animals. [See, Galanos et al., Proc. Natl. Acad Sci. USA., 76, 5939 (1979)]. In mice, depending on the strain and age, the sensitivity to endotoxin can be increased many thousand-fold.
A number of preliminary experiments were carried out to establish this model of lethal endotoxin shock.

[5] = system: IL-1 production by splenic adherent cells; test: adjuvant-induced arthritis in the rat: IL-1 production by LPS-stimulated splenic adherent cells; assay type: in vivo; details: for effect in adjuvant arthritic rats: short-term treatment; for IL-1 Production (splenic adherent cells), % normal control: mg/kg: Compound 1 60, indomethacin 2.0, prednisolone 10, methotrexate 0.3, D-penicillamine 50
Experimental: (§3) Adjuvant-induced arthritis in the rat is a model of systemic inflammation with characteristics similar to rheumatoid arthritis in man. […] This model was employed to assess the effect of Compound 1 in vivo on this elevated IL-1 production. Briefly, rats were injected on day 0 with Freund's complete adjuvant in the right hind leg. Drugs were prepared as a suspension in tragacanth and administered daily per os either prophylactically (days 1 to 16) or therapeutically in a short-term modality (days 14 to 16). In all cases, final administration of drug occurred at 3 hours prior to sacrifice. Spleens were removed from these rats and the adherent cells were assessed for their ability to produce IL-1 in vitro in response to stimulation by LPS.
(§4) PROPHYLACTIC TREATMENT: Drugs were administered daily p.o. as a suspensio
(§5) in tragacanth from day 1 to day 16. Final dose given 3 hrs before
(§6) TREATMENT: Drugs were administered daily p.o. as above from
(§7) day 14 to day 16. Final dose given 3 hrs before sacrifice.
(§8) ***P < 0.01 Indomethacin 2.0 mg/kg
(§9) **P < 0.05 Compound 1 60 mg/kg
(§10) *P < 0.10 Prednisolone 10 mg/kg
(§11) D-Penicillamine 50 mg/kg

[6] = system: murine model of endotoxin shock; details: Hagmann et al., 1982; cited from earlier work
[7] = system: splenic adherent cells; test: adjuvant-induced arthritis in the rat: % splenic adherent cells; assay type: in vivo; details: mg/kg: Compound 1 60, indomethacin 2.0, prednisolone 10, methotrexate 0.3, D-penicillamine 50
Experimental: as §3, §4, §5, §6, §7, §8, §9, §10, §11

[8] = system: adjuvant-induced arthritis in the rat; test: adjuvant-induced arthritis in the rat: right leg paw edema; assay type: in vivo; details: mg/kg: Compound 1 60, indomethacin 2.0, prednisolone 10, methotrexate 0.3, D-penicillamine 50
Experimental: as §3, §4, §5, §6, §7, §8, §9, §10, §11

[9] = system: C57B1/6 mice; test: lethality of LPS in D-galactosamine treated C57B1/6 mice; assay type: in vivo, mouse; details: for Lethality, No. of Death/Total No.: D-Galactosamine 500 mg/kg i.v.
Experimental: as §2
A number of preliminary experiments were carried out to establish this model of lethal endotoxin shock. LPS concentrations of up to 1 mg/mouse are not lethal in C57B1/6 mice. When injected i.v. with D-GALN (500 mg/kg), however, the sensitivity increases so that 0.1 ug becomes a lethal dose (Table 5). The concentration of D-GALN required to obtain this effect is 400-500 mg/kg.
All compounds were administered i.v.

[10] = Homo sapiens, Monocyte, Table 3, read-out: % Inhibition @ 10^-6 M
[11] = prophylactic, daily p.o. days 1-16
[12] = therapeutic, daily p.o. days 14-16

| Compound | inhibition at 1 µM [1, 10] [%] | effect in adjuvant arthritic rats ([5]; therapeutic) | % Adherent Cells (splenic), % normal control [7, 11] [% normal control] | % Adherent Cells (splenic), % normal control [7, 12] [% normal control] | IL-1 Production (splenic adherent cells), % normal control [5, 11] [% normal control] | IL-1 Production (splenic adherent cells), % normal control [5, 12] [% normal control] | Right leg paw edema, % normal control [8, 11] [% normal control] | Right leg paw edema, % normal control [8, 12] [% normal control] | further results |
| --- | --- | --- | --- | --- | --- | --- | --- | --- | --- |
| CC(Cc1ccc(O)c(O)c1)C(C)Cc1ccc(O)c(O)c1 (stereo not drawn) [NDGA, nordihydroguaiaretic acid] |  |  |  |  |  |  |  |  | inhibition of IL-1 production [1]: marginally active in inhibition of IL-1 production; inhibition at 10 µM ([1]; Homo sapiens, Monocyte, 10^-5 M, read-out: % Inhibition IL-1): 88%; inhibition at 1 µM ([1]; Homo sapiens, Monocyte, read-out: % Inhibition IL-1): 33%; inhibition at 0.1 µM ([1]; Homo sapiens, Monocyte, 10^-7 M, read-out: % Inhibition IL-1): 31%; viability at 24 h, 10 µM [2]: ~50%; inhibition of prostaglandin synthesis [3]: little inhibitory effect on prostaglandin synthesis; inhibition at 10 µM ([3]; Homo sapiens, Monocyte, 10^-5 M, read-out: % Inhibition PGE2): 25%; inhibition at 1 µM ([3]; Homo sapiens, Monocyte, 10^-6 M, read-out: % Inhibition PGE2): 0%; inhibition at 0.1 µM ([3]; Homo sapiens, Monocyte, 10^-7 M, read-out: % Inhibition PGE2): 0% |
| Fc1ccc(-c2c(-c3ccncc3)nc3n2CCS3)cc1 [Compound 4] | 46 |  |  |  |  |  |  |  |  |
| Fc1ccc(-c2nc3n(c2-c2ccncc2)CCC3)cc1 [Compound 5] | 78 |  |  |  |  |  |  |  | protection from lethal effects of LPS/GALN [4]: protective effects |
| COc1ccc(-c2nc3n(c2-c2ccncc2)CCC3)cc1 [Compound 7] | 40 |  |  |  |  |  |  |  |  |
| CC(=O)OC[C@H]1O[C@@H]([S-])[C@H](OC(C)=O)[C@@H](OC(C)=O)[C@@H]1OC(C)=O.CCP(CC)CC.[Au+] [auranofin] |  | no effect |  |  |  |  |  |  |  |
| Clc1ccc(C(c2ccc(Cl)cc2)n2cc[n+](CC(OCc3ccc(Cl)cc3Cl)c3ccc(Cl)cc3Cl)c2)cc1 (stereo not drawn) [calmidazolium] |  |  |  |  |  |  |  |  | prevention of endotoxin lethality [6]: prevented endotoxin lethality |
| COc1ccc2c(c1)c(CC(=O)O)c(C)n2C(=O)c1ccc(Cl)cc1 [INDOMETHACIN, indomethacin] |  | no effect | 480 ± 189 | 394 ± 253 | 274 ± 100 | 330 ± 121 | 113 ± 8 | 145 ± 18 |  |
| N[C@H]1C(O)O[C@H](CO)[C@H](O)[C@@H]1O (stereo partly drawn) [D-Galactosamine] |  |  |  |  |  |  |  |  | Lethality, No. of Death/Total No. ([9]; 6 Hr.): 0/10; Lethality, No. of Death/Total No. ([9]; 24 Hr.): 0/10; D-GALN concentration required to sensitize to LPS ([9]; with LPS, i.v.): 400 to 500 mg/kg |
| CN(Cc1cnc2nc(N)nc(N)c2n1)c1ccc(C(=O)N[C@@H](CCC(=O)O)C(=O)O)cc1 [METHOTREXATE, methotrexate] |  | no effect | 134 ± 10 | 284 ± 175 | 67 ± 56 | 436 ± 178 | 96 ± 4 | 194 ± 2 |  |
| CC(C)(S)[C@@H](N)C(=O)O [D-PENICILLAMINE, d-penicillamine] |  | no effect | 372 ± 117 | 217 ± 6 | 336 ± 170 | 374 | 184 ± 20 | 191 ± 13 |  |
